Columns and labels:
[1] = Antagonist activity at LPA5 receptor in human isolated platelets assessed as inhibition of hexadecyl-LPA-induced platelet aggregation after 3 mins
[2] = Antagonist activity at LPA2 receptor in human isolated platelets assessed as inhibition of TRAP-induced platelet aggregation after 3 mins

IC50 [1] [µM] | IC50 [2] [µM] | Structure (SMILES)
> 30 | – | Cc1csc2c(N[C@@H](C)CN3CCN(S(=O)(=O)c4ccc(Cl)c(Cl)c4)CC3)ncnc12
2.2 | > 10 | COc1cccc(-n2nc(C(=O)O)cc2-c2ccc(C3CCCCC3)c(Cl)c2)c1
> 30 | – | Cc1noc(-c2ccc(CSCCC(=O)O)cc2)c1NC(=O)OC(C)c1ccccc1Cl (centres undefined) [3-(4-(4-((1-(2-chlorophenyl)ethoxy)carbonylamino)-3-methylisoxazol-5-yl)benzylthio)propanoic acid]

From BindingDB's records for doi:10.1016/j.bmcl.2012.06.057 (Sanofi-Aventis Deutschland, 2012)
